Read-outs that look alike come from different tables or passages of the source.
Tests used:
Mtb CDC1551 = experiment: Anti-TB activity against Mtb CDC1551 (IC90), Alamar Blue; format: cell-based; conditions: Mycobacterium tuberculosis
in vitro [1] = conditions: human
Mtb H37Rv = experiment: MIC determination in Mtb H37Rv, Microdilution Alamar Blue Assay (MABA); format: cell-based, Mycobacterium tuberculosis
[2] = HEK293T cytotoxicity assay (Cell Titer-Glo); format: cell-based; conditions: human, HEK293T cells; HEK293T, 3 days
Method: (§1) HEK293T (ATCC) were grown in DMEM (Gibco Cat # 11965-092) supplemented with 10% heat-inactivated FBS, Pen Strep (Gibco) 1X in a 5% CO2 humidified atmosphere at 37◦C. Cells were washed once with DPBS 1X (Gibco), incubated for less than 5 minutes at room temperature in TrypLE solution (Gibco), washed once in propagation medium to remove trypsin, and counted with Trypan Blue. 5 µL of cell suspension ([…]) was dispensed into 1536-well plates containing serial 3-fold drug dilution ranging from 40 µM to 2 nM and incubated for 3 days in a 5% CO2 humidified atmosphere at 37 ◦C. Cell Titer-Glo® Luminescent Cell Viability Assay (Promega) reagent was diluted 1:1 with water and then 2 µL were added to plates. Luminescence was measured in a PHERAStar plate reader (BMG Labtech) and data normalized to negative control (DMSO) minus inhibitor (Puromycin 10 µM). Dose-response curves were fit using the Smart Fit function in Genedata Screener Analyzer (v16.0.8).

in vitro [3] = conditions: mouse, po, 20 mg/kg
[4] = mouse
HEK293T cells = experiment: HEK293T cytotoxicity assay (Cell Titer-Glo); format: cell-based; conditions: for CC50: HEK293T, 3 days
Method: as §1

HepG2 cells = conditions: for CC50: read-out: HepG2 CC50, HepG2, 3 days
in vitro [5] = conditions: mouse, plasma
in vivo = conditions: mouse
Mtb H37Ra = experiment: microbe, parasite or virus in culture; format: cell-based; conditions: Mycobacterium tuberculosis, 168 h, read-out: H37Ra IC50
[6] = Mycobacterium tuberculosis, H37RV, 168 h, Mtb H37Rv, MABA, 7 days

In the case of COc1cc(OCc2ccc(-n3cncn3)cc2)ccc1OS(=O)(=O)F [Compound 3b, 4-((4-(1H-1,2,4-triazol-1-yl)benzyl)oxy)-2-methoxyphenyl sulfurofluoridate], the IC90 (Mtb CDC1551) is reported as > 30 µM, the CC50 at 72 h (in vitro [1]) is reported as 13.3 µM and the “anti-TB activity against Mtb (in words)” value (Mtb H37Rv) is reported as “not active”. The MIC (Mtb H37Rv; [6]) was 25 µM and the CC50 at 3 days [2] was > 40 µM.

In the case of CS(=O)(=O)Nc1ncn(-c2cc(F)c(COc3ccc(OS(=O)(=O)F)cc3)c(F)c2)n1 [Compound 21b, 4-((2,6-difluoro-4-(3-(methylsulfonamido)-1H-1,2,4-triazol-1-yl)benzyl)oxy)phenyl sulfurofluoridate], the fraction unbound (in vitro [3]) is reported as 0.016, the “coverage of plasma and lung levels above the H37Rv MIC” value ([4]; 20 mg/kg PO, total levels) is reported as ~24 h and the “unbound levels of plasma and lung coverage over MIC” value ([4]; 20 mg/kg PO, unbound levels) is reported as ~8 h. The AUC0-24 ([4]; IV 3 mg/kg) was 7,085 hr*ng/mL, the Cl ([4]; IV 3 mg/kg) was 0.423 L/h/kg and the T1/2 ([4]; IV 3 mg/kg) was 3.93 h. The Vd ([4]; IV 3 mg/kg) was 2.38 L/kg, the AUC0-24 ([4]; PO 20 mg/kg) was 47,615 hr*ng/mL and the T1/2 ([4]; PO 20 mg/kg) was 2.57 h. The Tmax ([4]; PO 20 mg/kg) was 1.00 h, the “Clung at 8 h” value ([4]; PO 20 mg/kg, lung, 8 h) was 1,596 ng/mL and the “Clung at 24 h” value ([4]; PO 20 mg/kg, lung, 24 h) was 14.1 ng/mL. The “Cplasma at 8 h” value ([4]; PO 20 mg/kg, plasma, 8 h) was 2,120 ng/mL, the “Cplasma at 24 h” value ([4]; PO 20 mg/kg, plasma, 24 h) was 22.6 ng/mL and the Cmax ([4]; in vivo, po, 20 mg/kg) was 9,290 ng/mL. The CC50 (in vitro [1]) was > 40 µM, the “H37Rv MIC” value (Mtb H37Rv; Mtb H37Rv, MABA, 7 days) was 0.06 ± 0.019 µM and the MIC (Mtb H37Rv; Mycobacterium tuberculosis, H37RV) was 0.028 mg/L. For the same compound, the MIC (Mtb H37Rv; [6]) was 0.06 µM, the “cytotoxicity against HEK293T (in words)” value (HEK293T cells) was “no cytotoxicity” and the CC50 at 3 days [2] was > 40 µM. For the same compound, the “cytotoxicity against HepG2 (in words)” value (HepG2 cells) was “no cytotoxicity”, the fraction unbound (in vitro [5]) was 0.008 and the Cmax (in vivo; iv, 3 mg/kg) was 3.31 µg/mL. The bioavailability (in vivo; po, 20 mg/kg) was 99.4%.

In the case of O=S(=O)(F)Oc1ccc(OCc2ccc(-n3cncn3)cc2F)cc1 [Compound 3d, 4-((2-fluoro-4-(1H-1,2,4-triazol-1-yl)benzyl)oxy)phenyl sulfurofluoridate], the IC90 (Mtb CDC1551) is reported as 1.3 µM, the CC50 at 72 h (in vitro [1]) is reported as 12.5 µM and the MIC (Mtb H37Rv; [6]) is reported as 0.6 µM. The CC50 at 72 h [2] was 22.7 µM.

In the case of “4-((2,6-difluoro-4-(1H-1,2,3-triazol-1-yl)benzyl)oxy)phenyl sulfurofluoridate [Compound 3 m]”, the MIC (Mtb H37Rv; Mtb H37Rv, MABA, 7 days) is reported as 0.22 µM, the CC50 (HEK293T cells) is reported as > 40 µM and the CC50 (HepG2 cells) is reported as > 40 µM.

In the case of O=S(=O)(F)Oc1ccc(OCc2ccc(-n3cncn3)cc2)cc1Cl [Compound 3c, 4-((4-(1H-1,2,4-triazol-1-yl)benzyl)oxy)-2-chlorophenyl sulfurofluoridate], the IC90 (Mtb CDC1551) is reported as 4.64 µM, the CC50 at 72 h (in vitro [1]) is reported as 5.8 µM and the “cytotoxicity against HEK293T (in words)” value (HEK293T cells) is reported as “exhibited cytotoxicity”. For the same compound, the CC50 at 72 h [2] was 3.7 µM and the “cytotoxicity against HepG2 (in words)” value (HepG2 cells) was “exhibited cytotoxicity”.

With O=S(=O)(F)Oc1ccc(OCc2c(F)cc(-n3cncn3)cc2F)cc1 [Compound 3i, 4-((2,6-difluoro-4-(1H-1,2,4-triazol-1-yl)benzyl)oxy)phenyl sulfurofluoridate] the CC50 at 72 h (in vitro [1]) was 5.8 µM, the MIC (Mtb H37Rv; [6]) was 0.6 µM and the CC50 at 3 days [2] was > 40 µM. The “selectivity index (SI)” value (HepG2 cells; HepG2 cytotoxicity vs H37Rv MIC) was 9.6.

For CC(=O)Nc1ccc(COc2ccc(OS(=O)(=O)F)cc2)cc1 [Compound 2], the IC50 (Mtb H37Ra) was 1.3 µM.

For O=S(=O)(F)Oc1ccc(OCc2c(F)cc(-c3nnn[nH]3)cc2F)cc1 [Compound 19 h, 4-((2,6-difluoro-4-(1H-tetrazol-5-yl)benzyl)oxy)phenyl sulfurofluoridate], the CC50 (in vitro [1]) was > 40 µM, the MIC (Mtb H37Rv; [6]) was 5 µM and the CC50 at 3 days [2] was > 40 µM.

In the case of CC(C)(C)S(=O)(=O)Nc1ncn(-c2cc(F)c(COc3ccc(OS(=O)(=O)F)cc3)c(F)c2)n1 [Compound 21f, 4-((4-(3-((1,1-dimethylethyl)sulfonamido)-1H-1,2,4-triazol-1-yl)-2,6-difluorobenzyl)oxy)phenyl sulfurofluoridate], the CC50 (in vitro [1]) is reported as > 40 µM, the MIC (Mtb H37Rv; [6]) is reported as 2.5 µM and the CC50 at 3 days [2] is reported as > 40 µM.

For O=S(=O)(F)Oc1ccc(OCc2ccc(-n3cncn3)cc2)cc1 [Compound 3a, 4-((4-(1H-1,2,4-triazol-1-yl)benzyl)oxy)phenyl sulfurofluoridate], the IC90 (Mtb CDC1551) was 4.71 µM, the IC50 (Mtb H37Ra) was 1.5 µM and the CC50 at 72 h (in vitro [1]) was 19.3 µM. The MIC (Mtb H37Rv; [6]) was 2.84 µM and the CC50 at 72 h [2] was 11.6 µM.

For Cc1nc(C)n(-c2cc(F)c(COc3ccc(OS(=O)(=O)F)cc3)c(F)c2)n1 [Compound 20e, 4-((4-(3,5-dimethyl-1H-1,2,4-triazol-1-yl)-2,6-difluorobenzyl)oxy)phenyl sulfurofluoridate], the CC50 at 72 h (in vitro [1]) was 8.1 µM, the MIC (Mtb H37Rv; [6]) was 0.23 µM and the CC50 at 72 h [2] was 14.3 µM.

In the case of O=S(=O)(F)Oc1ccc(OCc2c(F)cc(-c3cnoc3)cc2F)cc1 [Compound 19j, 4-((2,6-difluoro-4-(isoxazol-4-yl)benzyl)oxy)phenyl sulfurofluoridate], the CC50 at 72 h (in vitro [1]) is reported as 6.99 µM, the MIC (Mtb H37Rv; Mtb H37Rv, MABA, 7 days) is reported as 0.78 µM and the MIC (Mtb H37Rv; [6]) is reported as < 1 µM. For the same compound, the CC50 at 72 h [2] was 23.8 µM.

With “4-((2,6-difluoro-4-(3-isopropyl-1H-1,2,4-triazol-1-yl)benzyl)oxy)phenyl sulfurofluoridate [Compound 20 h]” the MIC (Mtb H37Rv; Mtb H37Rv, MABA, 7 days) was 0.31 µM, the CC50 (HEK293T cells) was > 40 µM and the CC50 (HepG2 cells) was > 40 µM.

In the case of CS(=O)(=O)c1ncn(-c2cc(F)c(COc3ccc(OS(=O)(=O)F)cc3)c(F)c2)n1 [Compound 20i, 4-((2,6-difluoro-4-(3-(methylsulfonyl)-1H-1,2,4-triazol-1-yl)benzyl)oxy)phenyl sulfurofluoridate], the CC50 at 72 h (in vitro [1]) is reported as 9.3 µM, the MIC (Mtb H37Rv; [6]) is reported as 0.4 µM and the CC50 at 72 h [2] is reported as 17.2 µM.

Work on Cn1ccnc1-c1cc(F)c(COc2ccc(OS(=O)(=O)F)cc2)c(F)c1 [Compound 19e, 4-((2,6-difluoro-4-(1-methyl-1H-imidazol-2-yl)benzyl)oxy)phenyl sulfurofluoridate] yielded a CC50 at 72 h (in vitro [1]) of 13.7 µM, an MIC (Mtb H37Rv; [6]) of 1.25 µM and a CC50 at 72 h [2] of 26 µM.

For CC(C)(C)c1ncn(-c2cc(F)c(COc3ccc(OS(=O)(=O)F)cc3)c(F)c2)n1 [Compound 20d, 4-((4-(3-(tert-butyl)-1H-1,2,4-triazol-1-yl)-2,6-difluorobenzyl)oxy)phenyl sulfurofluoridate], the CC50 at 72 h (in vitro [1]) was 6.9 µM, the MIC (Mtb H37Rv; [6]) was 1.2 µM and the CC50 at 72 h [2] was 13.7 µM.

Compound O=S(=O)(F)Oc1ccc(OCc2cc(F)c(-n3cncn3)cc2F)cc1 [Compound 3 h, 4-((2,5-difluoro-4-(1H-1,2,4-triazol-1-yl)benzyl)oxy)phenyl sulfurofluoridate] has a CC50 at 72 h (in vitro [1]) of 29.5 µM, an MIC (Mtb H37Rv; [6]) of 1.25 µM and a CC50 at 72 h [2] of 21.6 µM.

With O=S(=O)(F)Oc1ccc(OCc2c(F)cc(-c3nnc[nH]3)cc2F)cc1 [Compound 19a, 4-((2,6-difluoro-4-(1H-1,2,4-triazol-3-yl)benzyl)oxy)phenylsulfurofluoridate] the CC50 at 72 h (in vitro [1]) was 19.3 µM, the MIC (Mtb H37Rv; Mtb H37Rv, MABA, 7 days) was 0.9 µM and the MIC (Mtb H37Rv; [6]) was < 1 µM. The CC50 at 72 h [2] was 14.7 µM.

Cc1ncn(-c2cc(F)c(COc3ccc(OS(=O)(=O)F)cc3)c(F)c2)n1 [Compound 20a, 4-((2,6-difluoro-4-(3-methyl-1H-1,2,4-triazol-1-yl)benzyl)oxy)phenyl sulfurofluoridate] gave a CC50 at 72 h (in vitro [1]) of 16.3 µM, an MIC (Mtb H37Rv; [6]) of 0.3 µM and a CC50 at 72 h [2] of 17.1 µM.

From paper PMC10808981, “Synthesis and structure–activity relationships of aryl fluorosulfate-based inhibitors as novel antitubercular agents” (Bioorganic & Medicinal Chemistry Letters, 2024)
